Laboratory results from publication PMC12188386, “Selective CBP/EP300 Bromodomain Inhibitors: Novel Epigenetic Tools to Counter TNF-α-Driven Inflammation” (JACS Au, 2025).

Key:
Format in all cases: cell-based, human
HL-60(TB) = assay: NCI-60 one-dose screen; conditions: 10 µM, 48 h, Leukemia
Method: compounds with known characteristics were included as controls. Quantification of test and control compounds was performed by LC-MS/MS using an 8-point calibration curve under Cyprotex standard analytical conditions. The initial concentration (C0) at time zero was determined from the dosing solution, and recovery was calculated based on concentrations […]
The apparent permeability coefficient (Papp) is calculated from the equation (where dQ/dt is the drug permeation rate across the cells, C0 is the concentration in the donor compartment at time zero, and A is the area of the cell monolayer):
Efflux ratio (ER) is calculated from mean A-B and B-A data: […]
Adapted from NCI-60 Screening Methodology, one-dose screen:20 Briefly, human tumor cell lines, grown in RPMI 1640 containing 5% FBS and 2 mM L-glutamine, were plated in 96 well plates at densities ranging from 5,000 to 40,000 cells/well 24 h prior to addition of test compounds (here 10 μM 2). […] After washing again, the plates were air dried and bound stain solubilized with 10 mM Trizma base before absorbance was […]
(§1) Percentage growth (%Growth) was calculated as follows:
(§2) when Ti ≥ Tz, %Growth = Ti − Tz x 100 where Ti = absorbance from compound treated cells, Tz = absorbance from untreated cells at time zero, and C = absorbance from control (DMSO) treated cells. […]

[1] = tested on: TNF-α-induced cytokine expression in THP-1 cells; assay: cytokine mRNA expression by RT-qPCR; conditions: 1 h co-treatment of THP-1 cells with 10 ng/mL TNF-α and 1 μM compound
Method: For cytokine expression determination, 5x10^5 THP-1 cells were plated on 12 well plates the day prior to treatment with 10 ng/mL recombinant human TNF -α (aa 77-233) protein (R&D systems, 10291 -TA) and compounds at a final concentration of 0.1 % DMSO. In all cases, total
RNA was extracted using the NucleoSpin® RNA kit (Machery -Nagel) and used for cDNA synthesis with the High -Capacity cDNA Reverse Transcription kit (Applied Biosystems). RT-qPCR reactions were performed using PowerSYBR™ green PCR Master Mix (Applied Biosystems) and a LightCycler® 480 (Roche). cDNA was denatured for 10 min at 95 °C followed by 40 cycles of 15 s at 95 °C and 1 min at 60 °C. Cp values were determined as the maximum of the second derivative and target gene expression was compared to that of hprt from the same sample using the 2-ΔCp method. Gene expression was then normalized to the average of the control samples from the same day, or all biological replicates. […]

[2] = tested on: leukemia, melanoma and breast cancer cell lines; assay: NCI-60 antiproliferation screen; conditions: 10 µM
Method: Adapted from NCI-60 Screening Methodology, one-dose screen:20 Briefly, human tumor cell lines, grown in RPMI 1640 containing 5% FBS and 2 mM L-glutamine, were plated in 96 well plates at densities ranging from 5,000 to 40,000 cells/well 24 h prior to addition of test compounds (here 10 μM 2). 400x solutions of test compounds were prepared in DMSO, then diluted to 2x in medium supplemented with 50 μg/mL gentamicin. 100 μl of this 2x stock was added to cells previously plated in 100 μl medium, resulting in the desired final compound concentration. Cells were fixed in situ with cold TCA: untreated cells at the time of compound addition (Tz) and treated cells 48 h after addition of compound (Ti). Cells were washed, then su f rh damine s uti n μ at . w/v in acetic acid was added to each well and incubated for 10 minutes at room temperature. After washing again, the plates were air dried and bound stain solubilized with 10 mM Trizma base before absorbance was […]
as §1, §2

## Cc1cc2c(NC(=O)c3cc(NC(=O)c4ccco4)cc(-c4ccn(C)n4)c3)cccc2nn1 [Compound 2]
HL-60(TB)
  %Growth: 25%
[1]
  TNF-α-induced expression of il1β, il8, mcp-1 and tnf-α (mRNA): inhibited expression to a greater extent than the less potent but more soluble inhibitor 5
[2]
  growth of cancer cell lines (NCI-60), in words: strongly inhibit the growth of leukemia, melanoma and breast cancer cell lines
